Laboratory results published in PubChem BioAssay AID248 (DTP/NCI, 2004).
Inconclusive results and toxic doses are left out. No stated cut-off is given here; in the data, active means T/C of 150% or more; inactive means T/C below 125%. Square brackets hold non-standard residues; d marks the D form. Peptide text beside a SMILES is read from it. * marks the point of attachment. ξ: configuration not given here. Cbz = O=C(OCc1ccccc1)*; OBn = c1ccc(CO*)cc1; ξP = O=C(O)C1CCCN1

Tested on: L1210 leukemia ip in BDF1 mice, survival T/C
Test: NCI In Vivo Anticancer Drug Screen. Data for tumor model L1210 Leukemia (intraperitoneal) in B6D2F1 (BDF1) mice
Conditions: endpoint: mean survival time, higher = longer survival
How it was run: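 Survival endpoint. Drug-treated group vs vehicle group, expressed as T divided by C. Tumor passaged by transplantation.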

[1] = dose: 100.0 mg/kg/injection, schedule: Q04DX002 (ip), vehicle: saline
[2] = dose: 200.0 mg/kg/injection, schedule: Q04DX002 (ip), vehicle: saline
[3] = dose: 400.0 mg/kg/injection, schedule: Q04DX002 (ip), vehicle: saline
[4] = dose: 100.0 mg/kg/injection, schedule: Q01DX001 (ip), vehicle: carboxymethylcellulose (CMC)
[5] = dose: 200.0 mg/kg/injection, schedule: Q01DX001 (ip), vehicle: carboxymethylcellulose (CMC)
[6] = dose: 400.0 mg/kg/injection, schedule: Q01DX001 (ip), vehicle: carboxymethylcellulose (CMC)
[7] = dose: 100.0 mg/kg/injection, schedule: Q01DX001 (ip), vehicle: other
[8] = dose: 200.0 mg/kg/injection, schedule: Q01DX001 (ip), vehicle: other
[9] = dose: 400.0 mg/kg/injection, schedule: Q01DX001 (ip), vehicle: other
[10] = dose: 100.0 mg/kg/injection, schedule: Q04DX003 (ip), vehicle: Klucel (hydroxypropylcellulose) (HPC)
[11] = dose: 200.0 mg/kg/injection, schedule: Q04DX003 (ip), vehicle: Klucel (hydroxypropylcellulose) (HPC)
[12] = dose: 400.0 mg/kg/injection, schedule: Q04DX003 (ip), vehicle: Klucel (hydroxypropylcellulose) (HPC)
[13] = dose: 75.0 mg/kg/injection, schedule: Q01DX001 (ip), vehicle: other
[14] = dose: 100.0 mg/kg/injection, schedule: Q01DX009 (ip), vehicle: Klucel (hydroxypropylcellulose) (HPC)
[15] = dose: 200.0 mg/kg/injection, schedule: Q01DX009 (ip), vehicle: Klucel (hydroxypropylcellulose) (HPC)
[16] = dose: 400.0 mg/kg/injection, schedule: Q01DX009 (ip), vehicle: Klucel (hydroxypropylcellulose) (HPC)
[17] = dose: 100.0 mg/kg/injection, schedule: Q01DX009 (ip), vehicle: saline with Tween-80
[18] = dose: 200.0 mg/kg/injection, schedule: Q01DX009 (ip), vehicle: saline with Tween-80
[19] = dose: 400.0 mg/kg/injection, schedule: Q01DX009 (ip), vehicle: saline with Tween-80
[20] = dose: 100.0 mg/kg/injection, schedule: Q04DX003 (ip), vehicle: saline with Tween-80
[21] = dose: 200.0 mg/kg/injection, schedule: Q04DX003 (ip), vehicle: saline with Tween-80
[22] = dose: 400.0 mg/kg/injection, schedule: Q04DX003 (ip), vehicle: saline with Tween-80
[23] = dose: 100.0 mg/kg/injection, schedule: Q04DX003 (ip), vehicle: saline
[24] = dose: 200.0 mg/kg/injection, schedule: Q04DX003 (ip), vehicle: saline
[25] = dose: 400.0 mg/kg/injection, schedule: Q04DX003 (ip), vehicle: saline

Measured: T/C

C[N+]1=NN(c2nc[nH]c2C(N)=O)CC1
inactive: [1] 96 % of control | [2] 100 % of control | [3] 115 % of control

CN(C(=O)OCc1ccccc1)c1ccc(C(=O)NC(CCC(=O)O)C(=O)O)cc1 (centres undefined)
inactive: [4] 94 % of control | [5] 102 % of control | [6] 96 % of control

O=c1[nH][nH]c(=O)c2c([N+](=O)[O-])cccc12
inactive: [7] 90 % of control | [8] 92 % of control | [9] 87 % of control

c1ccc2[nH]c(C(=C(c3nc4ccccc4[nH]3)c3nc4ccccc4[nH]3)c3nc4ccccc4[nH]3)nc2c1
inactive: dose: 100.0 mg/kg/injection, schedule: Q01DX001 (ip), vehicle: Klucel (hydroxypropylcellulose) (HPC) 87 % of control | [10] 97 % of control | dose: 200.0 mg/kg/injection, schedule: Q01DX001 (ip), vehicle: Klucel (hydroxypropylcellulose) (HPC) 87 % of control | [11] 112 % of control | [12] 90 % of control

CNNC(=O)CCc1ccccc1
inactive: dose: 10.0 mg/kg/injection, schedule: Q01DX009 (ip), vehicle: saline 103 % of control | dose: 20.0 mg/kg/injection, schedule: Q01DX009 (ip), vehicle: saline 93 % of control | dose: 40.0 mg/kg/injection, schedule: Q01DX009 (ip), vehicle: saline 90 % of control

CCNCc1cc(Nc2cc(C)nc(/N=C(\N)Nc3ccc(Cl)c(Cl)c3)n2)ccc1OC
inactive: dose: 3.12 mg/kg/injection, schedule: Q01DX009 (ip), vehicle: Klucel (hydroxypropylcellulose) (HPC) 94 % of control | dose: 6.25 mg/kg/injection, schedule: Q01DX009 (ip), vehicle: Klucel (hydroxypropylcellulose) (HPC) 103 % of control | dose: 12.5 mg/kg/injection, schedule: Q01DX009 (ip), vehicle: Klucel (hydroxypropylcellulose) (HPC) 97 % of control | dose: 25.0 mg/kg/injection, schedule: Q04DX003 (ip), vehicle: Klucel (hydroxypropylcellulose) (HPC) 101 % of control | dose: 50.0 mg/kg/injection, schedule: Q04DX003 (ip), vehicle: Klucel (hydroxypropylcellulose) (HPC) 111 % of control | [13] 97 % of control | [10] 95 % of control

O=C(NCC(=O)N1CCCC1C(=O)OCc1ccccc1)OCc1ccccc1 (stereo not drawn) (Cbz-Gly-[ξP]-OBn)
inactive: [10] 106 % of control | [11] 106 % of control | [12] 102 % of control

[I][Hg][I].c1ccc(P(N2CCCCC2)N2CCCCC2)cc1
inactive: [14] 102 % of control | [15] 97 % of control | [16] 97 % of control

O=C(O)CO
inactive: dose: 50.0 mg/kg/injection, schedule: Q01DX001 (ip), vehicle: saline 94 % of control | dose: 100.0 mg/kg/injection, schedule: Q01DX001 (ip), vehicle: saline 97 % of control | [17] 107 % of control | dose: 200.0 mg/kg/injection, schedule: Q01DX001 (ip), vehicle: saline 108 % of control | [18] 100 % of control | [19] 93 % of control

Cc1ccc([N+](=O)[O-])cc1NC(=O)N(C(C)C)C1CCCCC1
inactive: [14] 106 % of control | [15] 95 % of control | [16] 106 % of control

O=C1OC(=O)C2(Br)C3C=CC(C3)C12Br (centres undefined)
inactive: [20] 98 % of control | [21] 96 % of control | [22] 91 % of control

O=S(=O)(Nc1ccc(NS(=O)(=O)c2ccccc2)c2ccccc12)c1ccccc1
inactive: [17] 87 % of control | [18] 92 % of control | [19] 92 % of control

Nc1ccc(F)c(Cl)c1
inactive: [1] 121 % of control | [2] 98 % of control | [3] 105 % of control

NC(=O)C1C(=O)c2cccc3c2C1CCCC3 (centres undefined)
inactive: [4] 90 % of control | [5] 95 % of control | [6] 92 % of control

O=C(O)C(O)C(O)C(O)C(O)CO (centres undefined)
inactive: [23] 106 % of control | [24] 96 % of control | [25] 96 % of control

CCOC(=O)CC1NCCC2C1CCC(OC)C2OC (centres undefined)
inactive: dose: 50.0 mg/kg/injection, schedule: Q01DX009 (ip), vehicle: saline with Tween-80 106 % of control | [10] 98 % of control | [18] 95 % of control | [11] 104 % of control

N#CCCOC(=O)CCC(=O)OCCC#N
inactive: [7] 104 % of control | [8] 100 % of control | [9] 102 % of control

COC(=O)c1ccncc1
inactive: [23] 101 % of control | [24] 98 % of control | [25] 104 % of control

CN(C)S(=O)(=O)Oc1ccc(S(=O)(=O)F)cc1Cl
inactive: [1] 112 % of control | [2] 104 % of control | [3] 112 % of control

O=C(O)c1cccc2c1C(=O)c1c(O)cccc1C2=O
inactive: dose: 50.0 mg/kg/injection, schedule: Q04DX002 (ip), vehicle: Klucel (hydroxypropylcellulose) (HPC) 105 % of control | dose: 100.0 mg/kg/injection, schedule: Q04DX002 (ip), vehicle: Klucel (hydroxypropylcellulose) (HPC) 96 % of control | dose: 200.0 mg/kg/injection, schedule: Q04DX002 (ip), vehicle: Klucel (hydroxypropylcellulose) (HPC) 92 % of control

CN(C)C(=O)Sc1ccc2c(c1)CCC1C2CCC2(C)C(=O)CCC12 (centres undefined)
inactive: dose: 100.0 mg/kg/injection, schedule: Q01DX001 (ip), vehicle: gum acacia 101 % of control | dose: 200.0 mg/kg/injection, schedule: Q01DX001 (ip), vehicle: gum acacia 101 % of control | dose: 400.0 mg/kg/injection, schedule: Q01DX001 (ip), vehicle: gum acacia 97 % of control

OCc1cc(Cl)cc(Cl)c1O
inactive: [17] 97 % of control | [20] 97 % of control | [21] 98 % of control | [22] 101 % of control

COC1=NS(=O)(=O)CC(N2C(=O)CCC2=O)O1 (centres undefined)
inactive: [10] 98 % of control | [11] 109 % of control | [12] 101 % of control

CC(Cc1ccccc1)Nc1ccccn1 (centres undefined)
inactive: [13] 97 % of control | dose: 150.0 mg/kg/injection, schedule: Q01DX001 (ip), vehicle: other 97 % of control | dose: 300.0 mg/kg/injection, schedule: Q01DX001 (ip), vehicle: other 95 % of control

CC(=O)CC(=O)N1CCCCCC1
inactive: dose: 100.0 mg/kg/injection, schedule: Q01DX009 (ip), vehicle: gum acacia 93 % of control | [20] 98 % of control | dose: 200.0 mg/kg/injection, schedule: Q01DX009 (ip), vehicle: gum acacia 98 % of control | [21] 95 % of control | dose: 400.0 mg/kg/injection, schedule: Q01DX009 (ip), vehicle: gum acacia 101 % of control | [22] 102 % of control
